EC50, Emax and Efficiency data for 16 molecules are collected here from US11472803B2, “7-substituted 1-aryl-naphthyridine-3-carboxylic acid amides and use thereof” (Bayer Aktiengesellschaft, priority 2016, dated 2022).

The assay deals with T1, human M2 receptor (Homo sapiens, UniProt P08172).
T1 construct: expressed in transfected cells; host or cells: CHO-DUKX (CHO-DUKX-M2-GIRK)
T1 sequence (P08172 1-466): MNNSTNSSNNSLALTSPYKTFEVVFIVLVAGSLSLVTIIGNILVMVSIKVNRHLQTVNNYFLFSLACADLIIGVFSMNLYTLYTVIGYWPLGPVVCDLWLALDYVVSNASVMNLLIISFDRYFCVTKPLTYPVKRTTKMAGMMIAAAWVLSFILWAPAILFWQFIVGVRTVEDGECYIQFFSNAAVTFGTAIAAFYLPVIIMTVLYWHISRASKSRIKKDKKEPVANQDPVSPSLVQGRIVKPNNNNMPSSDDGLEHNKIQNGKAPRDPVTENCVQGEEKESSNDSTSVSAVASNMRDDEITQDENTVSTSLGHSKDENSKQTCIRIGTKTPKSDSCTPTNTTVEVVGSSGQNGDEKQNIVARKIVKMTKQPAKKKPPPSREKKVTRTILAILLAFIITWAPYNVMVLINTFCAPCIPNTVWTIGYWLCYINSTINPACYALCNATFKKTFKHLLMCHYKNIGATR
The assay is described as follows: Functional M2-GIRK1/4 activation test: allosteric potency (EC50) and efficiency at EC20 acetylcholine. The class given is cell-based. Particulars: CHO-DUKX-M2-GIRK cells; for EC50: voltage-sensitive dye, acetylcholine at EC20, in some cases mean of two or more determinations; for Emax / Efficiency: boosting of the acetylcholine effect at EC20 acetylcholine concentration. The essentials:
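CHO-DUKX cells stably expressing human M2 and GIRK1/4; membrane potential tracked with voltage-sensitive dye at room temperature. Compound added 50 s before acetylcholine at its EC20, then hyperpolarization read 60 s. EC50 (allosteric potency) and efficiency (boost of EC20 ACh effect) from 4-parameter Hill fit.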

As to `CC(C)(CC(F)(F)F)NC(=O)c1cn(-c2c(F)cc(F)cc2F)c2nc(N3C[C@@H](O)[C@@H](O)C3)c(F)cc2c1=O` [Example 91, 7-[(3R,4S)-3,4-Dihydroxypyrrolidin-1-yl]-6-fluoro-4-oxo-N-(4,4,4-trifluoro-2-methylbutan-2-yl)-1-(2,4,6-trifluorophenyl)-1,4-dihydro-1,8-naphthyridine-3-carboxamide], a half-maximal response (EC50) required 6.5 nM and the Emax stood at 100%.

`CC(C)[C@@H](C)NC(=O)c1cn(-c2c(F)cc(F)cc2F)c2nc(N3C[C@@H](O)[C@@H](O)C3)c(F)cc2c1=O` [Example 99, 7-[(3R,4S)-3,4-Dihydroxypyrrolidin-1-yl]-6-fluoro-N-[(2R)-3-methylbutan-2-yl]-4-oxo-1-(2,4,6-trifluorophenyl)-1,4-dihydro-1,8-naphthyridine-3-carboxamide] showed an EC50 of 35.5 nM and an Emax of 96%.

`CC(C)[C@H](C)NC(=O)c1cn(-c2c(F)cc(F)cc2F)c2nc(N3C[C@@H](O)[C@@H](O)C3)c(F)cc2c1=O` [Example 100, 7-[(3R,4S)-3,4-Dihydroxypyrrolidin-1-yl]-6-fluoro-N-[(2S)-3-methylbutan-2-yl]-4-oxo-1-(2,4,6-trifluorophenyl)-1,4-dihydro-1,8-naphthyridine-3-carboxamide] showed an EC50 of 31.5 nM and an Emax of 100%.

`O=C(N[C@@H](C1CC1)C(F)(F)F)c1cn(-c2c(F)cc(F)cc2F)c2nc(N3C[C@@H](O)[C@@H](O)C3)c(F)cc2c1=O` [Example 101, N-[(1S)-1-Cyclopropyl-2,2,2-trifluoroethyl]-7-[(3R,4S)-3,4-dihydroxypyrrolidin-1-yl]-6-fluoro-4-oxo-1-(2,4,6-trifluorophenyl)-1,4-dihydro-1,8-naphthyridine-3-carboxamide] registered an EC50 of 13.5 nM and an Emax of 100%.

`COC[C@@H](NC(=O)c1cn(-c2c(F)cc(F)cc2F)c2nc(N3C[C@@H](O)[C@@H](O)C3)c(F)cc2c1=O)C(C)C` [Example 102, 7-[(3R,4S)-3,4-Dihydroxypyrrolidin-1-yl]-6-fluoro-N-[(2S)-1-methoxy-3-methylbutan-2-yl]-4-oxo-1-(2,4,6-trifluorophenyl)-1,4-dihydro-1,8-naphthyridine-3-carboxamide] had an EC50 of 295 nM and an Emax of 92%.

For `CC(C)C(NC(=O)c1cn(-c2c(F)cc(F)cc2F)c2nc(N3C[C@@H](O)[C@@H](O)C3)c(F)cc2c1=O)C(C)C` [Example 103, 7-[(3R,4S)-3,4-Dihydroxypyrrolidin-1-yl]-N-(2,4-dimethylpentan-3-yl)-6-fluoro-4-oxo-1-(2,4,6-trifluorophenyl)-1,4-dihydro-1,8-naphthyridine-3-carboxamide], the EC50 came out at 8.1 nM and the Emax was found to be 100%.

With `CCC(NC(=O)c1cn(-c2c(F)cc(F)cc2F)c2nc(N3C[C@@H](O)[C@@H](O)C3)c(F)cc2c1=O)C(C)C` (stereo partly drawn) [Example 105, 7-[(3R,4S)-3,4-Dihydroxypyrrolidin-1-yl]-6-fluoro-V-[2-methylpentan-3-yl]-6-fluoro-4-oxo-1-(2,4,6-trifluorophenyl)-1,4-dihydro-1,8-naphthyridine-3-carboxamide], the response was half-maximal at 7.5 nM (EC50) and the Efficiency is listed as 97%.

Regarding `CCC(NC(=O)c1cn(-c2c(F)cc(F)cc2F)c2nc(N3C[C@@H](O)[C@@H](O)C3)c(F)cc2c1=O)C(C)C` (stereo partly drawn) [Example 106, 7-[(3R,4S)-3,4-Dihydroxypyrrolidin-1-yl]-6-fluoro-V-[2-methylpentan-3-yl]-6-fluoro-4-oxo-1-(2,4,6-trifluorophenyl)-1,4-dihydro-1,8-naphthyridine-3-carboxamide], a half-maximal response (EC50) required 7.2 nM and the Efficiency is given as 100%.

Regarding `CC(C)(CC(F)(F)F)NC(=O)c1cn(-c2c(F)cc(F)cc2F)c2nc(N3CC[C@H](O)C3)c(F)cc2c1=O` [Example 107, 6-Fluoro-7-[(3S)-3-hydroxypyrrolidin-1-yl]-4-oxo-N-(4,4,4-trifluoro-2-methylbutan-2-yl)-1-(2,4,6-trifluorophenyl)-1,4-dihydro-1,8-naphthyridine-3-carboxamide], a half-maximal response (EC50) required 3.55 nM and the Emax was 92%.

For `CC(C)[C@H](C)NC(=O)c1cn(-c2c(F)cc(F)cc2F)c2nc(N3CC[C@H](O)C3)c(F)cc2c1=O` [Example 119, 6-Fluoro-7-[(3S)-3-hydroxypyrrolidin-1-yl]-N-[(2S)-3-methylbutan-2-yl]-4-oxo-1-(2,4,6-tri-fluorophenyl)-1,4-dihydro-1,8-naphthyridine-3-carboxamide], the EC50 was 8.7 nM and the Emax turned out to be 100%.

Take `CC(C)[C@@H](C)NC(=O)c1cn(-c2c(F)cc(F)cc2F)c2nc(N3CC[C@H](O)C3)c(F)cc2c1=O` [Example 120, 6-Fluoro-7-[(3S)-3-hydroxypyrrolidin-1-yl]-N-[(2R)-3-methylbutan-2-yl]-4-oxo-1-(2,4,6-tri-fluorophenyl)-1,4-dihydro-1,8-naphthyridine-3-carboxamide]: a half-maximal response (EC50) required 10.5 nM and the Emax was 96%.

Regarding `COC[C@H](NC(=O)c1cn(-c2c(F)cc(F)cc2F)c2nc(N3CC[C@H](O)C3)c(F)cc2c1=O)C(C)C` [Example 121, 6-Fluoro-7-[(3S)-3-hydroxypyrrolidin-1-yl]-N-[(2R)-1-methoxy-3-methylbutan-2-yl]-4-oxo-1-(2,4,6-trifluorophenyl)-1,4-dihydro-1,8-naphthyridine-3-carboxamide], a half-maximal effect (EC50) was put at 125 nM and the Emax came to 100%.

Molecule `CC(C)C(NC(=O)c1cn(-c2c(F)cc(F)cc2F)c2nc(N3CC[C@H](O)C3)c(F)cc2c1=O)C(C)C` [Example 122, N-(2,4-Dimethylpentan-3-yl)-6-fluoro-7-[(3S)-3-hydroxypyrrolidin-1-yl]-4-oxo-1-(2,4,6-tri-fluorophenyl)-1,4-dihydro-1,8-naphthyridine-3-carboxamide] yielded an EC50 of 3.55 nM and an Emax of 100%.

Molecule `CC(C)(NC(=O)c1cn(-c2c(F)cc(F)cc2F)c2nc(N3C[C@@H](O)[C@@H](O)C3)c(F)cc2c1=O)C(F)(F)F` [Example 124, 7-[(3R,4S)-3,4-Dihydroxypyrrolidin-1-yl]-6-fluoro-4-oxo-N-(1,1,1-trifluoro-2-methylpropan-2-yl)-1-(2,4,6-trifluorophenyl)-1,4-dihydro-1,8-naphthyridine-3-carboxamide] yielded an EC50 of 18 nM and an Emax of 100%.

Turning to `CC(C)(NC(=O)c1cn(-c2c(F)cc(F)cc2F)c2nc(N3CC[C@H](O)C3)c(F)cc2c1=O)C(F)(F)F` [Example 125, 6-Fluoro-7-[(3S)-3-hydroxypyrrolidin-1-yl]-4-oxo-N-(1,1,1-trifluoro-2-methylpropan-2-yl)-1-(2,4,6-trifluorophenyl)-1,4-dihydro-1,8-naphthyridine-3-carboxamide], the EC50 worked out at 12 nM and the Emax turned out to be 97%.

Turning to `O=C(Nc1c(Cl)cccc1Cl)c1cn(-c2c(F)cc(F)cc2F)c2nc(N3C[C@@H](O)[C@H](O)C3)c(F)cc2c1=O` [Example 130, N-(2,6-Dichlorophenyl)-7-[(3R,4R)-3,4-dihydroxypyrrolidin-1-yl]-6-fluoro-4-oxo-1-(2,4,6-trifluorophenyl)-1,4-dihydro-1,8-naphthyridine-3-carboxamide], the EC50 amounted to 2.3 nM and the Emax amounted to 96%.
